The target in test [1] is recombinant human GSK3α (Homo sapiens, UniProt P49840). Put plainly: In vitro enzymatic assay for inhibition of GSK3α (Kinase-Glo Max luminescence). It is filed as biochemical. The settings on record: 10 uM ATP, 0.1 mg/ml GSKtide, 30° C. for 40 minutes; read-out: Potency GSK-3alpha. The protocol: (§1) Enzymatic activities using recombinant human GSK3 using an in vitro enzymatic assay for inhibition GSK3α and GSK3β.
(§2) The assay was performed using Kinase-Glo Max luminescence kinase assay kit (Promega). It measures kinase activity by quantitating the amount of ATP remaining in solution following a kinase reaction. The luminescent signal from the assay is correlated with the amount of ATP present and is inversely correlated with the amount of kinase activity. The compounds were diluted in 10% DMSO and 5 μl of the dilution was added to a 50 μl reaction so that the final concentration of DMSO is 1% in all of reactions. The enzymatic reactions were conducted at 30° C. for 40 minutes. The 50 μl reaction mixture contains 40 mM Tris, pH 7.4, 10 mM MgCl2, 0.1 mg/ml BSA, 2 mM DTT, 0.1 mg/ml GSKtide substrate, 10 uM ATP and GSK3. After the enzymatic reaction, 50 μl of Kinase-Glo Max Luminescence kinase assay solution (Promega) was added to each reaction and incubate the plate for 15 minutes at room temperature. Luminescence signal was measured using a BioTek Synergy 2 microplate reader.
(§3) Kinase activity assays were performed in duplicate at each concentration. The luminescence data were analyzed using the computer software, Graphpad Prism. The difference between luminescence intensities in the absence of Kinase (Lut) and in the presence of Kinase (Luc) was defined as 100% activity (Lut−Luc). […]

Test [2] addresses recombinant human GSK3β (Homo sapiens, UniProt P49841). Put plainly: In vitro enzymatic assay for inhibition of GSK3β (Kinase-Glo Max luminescence). It is filed as biochemical. The settings on record: 10 uM ATP, 0.1 mg/ml GSKtide, 30° C. for 40 minutes; read-out: Potency GSK-3beta. The protocol: as §1, §2, §3
Test [3] relates to Wnt signaling pathway, TCF/LEF reporter-HEK293 Recombinant cell lines. Put plainly: Wnt signaling pathway activation in HEK293 cells (TCF/LEF reporter, luciferase). It is filed as cell-based. The conditions noted are these: Homo sapiens, incubated overnight, read-out: Potency. The protocol: Assay: Wnt Signaling Pathway Activation in HEK293 Cells. Materials:
TCF/LEF reporter-HEK293 Recombinant cell lines
One-Step Luciferase Assay System
The assay was performed using TCF/LEF reporter-HEK293 Recombinant cell lines
Plate 32,000 TCF/LEF reporter-HEK293 Recombinant cells/well in a 96-well plate (volume=90 μL). The compounds were diluted in the thawing medium 1 containing 1% DMSO, and add 10 μL to each well (0.1% DMSO at final). The cells were incubated for overnight at 37° C. in 5% CO2 followed by adding 100 μL of One-Step Luciferase Assay System to each well. Plate was incubated for 30 min at room temperature in a darkroom.
Luminescence signal was measured using a BioTek Synergy 2 microplate reader.
Wnt signaling pathway activation assays were performed in triplicates at each concentration. The luminescence data were analyzed using the computer software, Graphpad Prism. The luminescence intensity in the absence of Compounds (Luc) was defined the minimum activity and the signal in the presence of the highest concentration of the Compound was defined as the maximum activity. Signal from the wells containing medium only was defined as background. […]

Test [4] deals with Lgr5-positive cells. Put plainly: Expansion of Lgr5-positive cochlear cells from Lgr5-EGFP-IRES-Cre-ER mice (flow cytometry for Lgr5-GFP). The settings on record: 10 days (D10) in culture; for Potency: Lgr5-positive cell expansion; for % of Cells: percentage of GFP-positive (Lgr5-GFP) cells. Format: cell-based, mouse. The protocol: Lgr5-EGFP-IRES-Cre-ER mice (Barker et al., 2007) (http://jaxmice.jax.org/strain/008875.html) are used to analyze the effects of small molecules on cochlear stem cell expansion.
Isolation of stem cells from the inner ear: All animal studies are conducted under an approved institutional protocol according to National Institutes of Health guidelines. For experiments with neonatal mice (postnatal days 1-3), the cochleae are dissected in HBSS and the organ of Corti are separated from the stria vascularis and the modiolus. The organs of Corti are then treated with Cell Recovery Solution (Corning) for 1 h to separate cochlear epithelium from the underlying mesenchyme. Epithelia are then collected and treated with TrypLE (Life Technologies) for 15-20 minutes at 37° C. Single cells obtained by mechanical trituration are filtered (40 μm) and suspended in Matrigel (Corning) for 3D culture.
Cells are cultured in a 1:1 mixture of DMEM and F12, supplemented with Glutamax (GIBCO), N2, B27 (Invitrogen), EGF (50 ng/ml; Chemicon), bFGF (50 ng/ml; Chemicon), IGF1 (50 ng/ml; Chemicon) and the composition provided herein. Media are changed every other day.
Lgr5-positive cells are quantified after 10 days (D10) in culture in multiple conditions. Cell colonies are dissociated into single cells using TrypLE (Gibco). The cells are then stained with propidium iodide (PI) and are analyzed using a flow cytometer for Lgr5-GFP expression. The number of GFP-positive cells and the percentage of GFP-positive cells are quantified.
Atoh1-nGFP-positive cells are quantified at day 0 (D0) and day 10 (D10) of differentiation treatment to determine the number of hair cells that have differentiated. Cell colonies are incubated in Cell Recovery Solution to release the colonies from Matrigel and dissociated into single cells using TrypLE. The total number and percentage of GFP-positive cells are quantified using a flow cytometer for multiple culture conditions. ANOVA is used to compare means across conditions, and the two-tailed Student's T-test is used to compare each condition to the treatment with the highest yield.

recombinant human GSK3β, sequence (P49841 whole entry): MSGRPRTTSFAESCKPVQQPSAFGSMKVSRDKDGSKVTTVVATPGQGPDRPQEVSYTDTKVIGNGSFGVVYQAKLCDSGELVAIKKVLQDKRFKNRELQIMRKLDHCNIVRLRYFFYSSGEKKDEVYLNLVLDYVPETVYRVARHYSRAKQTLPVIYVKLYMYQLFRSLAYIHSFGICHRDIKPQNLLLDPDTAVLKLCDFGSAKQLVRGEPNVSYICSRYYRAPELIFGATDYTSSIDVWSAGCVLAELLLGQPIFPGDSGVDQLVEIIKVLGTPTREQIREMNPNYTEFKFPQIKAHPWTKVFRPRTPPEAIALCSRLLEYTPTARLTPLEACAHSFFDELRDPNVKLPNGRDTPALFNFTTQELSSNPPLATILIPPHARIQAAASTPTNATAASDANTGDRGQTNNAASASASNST
recombinant human GSK3α, sequence (P49840 whole entry): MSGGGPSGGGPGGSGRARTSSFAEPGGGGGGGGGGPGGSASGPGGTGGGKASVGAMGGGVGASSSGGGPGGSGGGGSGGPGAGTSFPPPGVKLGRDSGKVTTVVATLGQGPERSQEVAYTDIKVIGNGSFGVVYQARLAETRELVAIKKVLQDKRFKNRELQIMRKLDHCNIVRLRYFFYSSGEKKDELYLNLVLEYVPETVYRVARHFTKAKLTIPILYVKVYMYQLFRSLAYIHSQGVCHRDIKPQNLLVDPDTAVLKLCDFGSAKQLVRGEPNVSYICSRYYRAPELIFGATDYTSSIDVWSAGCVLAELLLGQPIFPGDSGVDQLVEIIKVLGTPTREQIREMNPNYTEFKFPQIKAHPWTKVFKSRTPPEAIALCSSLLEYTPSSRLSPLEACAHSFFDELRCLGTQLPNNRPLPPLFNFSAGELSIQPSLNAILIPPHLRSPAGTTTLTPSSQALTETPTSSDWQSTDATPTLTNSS

For `O=C1NCC(c2cn3c4c(cc(F)cc24)CN(C(=O)N2CCCCC2)CC3)=C1c1cnc2ccccn12` [Compound I-4], the IC50 worked out at 15.6 nM in test [1] and 22 nM in test [2]. For the same compound, the EC50 in test [3] was determined as 60 nM. In test [4], this compound had a Potency of 333.3 nM. The “% of Cells” value in test [4] was 8.3%.

Turning to `O=C1NCC(c2cnc3ccccn23)=C1c1cn2c3c(cc(F)cc13)CN(C(=O)N1CCCCC1)CC2` [Compound I-49], the values for the IC50 in test [1] and in test [2] were 8.2 nM and 8.3 nM, respectively. Also, the EC50 in test [3] is less than 10 nM. The compound also returned a Potency in test [4] of 333.3 nM. Moreover, the “% of Cells” value in test [4] worked out at 5.5%.

The record behind these values is patent US10383881B2, “1,5-dihydro-2H-pyrrol-2-one compounds and methods of using same” (Frequency Therapeutics, Inc., priority 2016, dated 2019).
